“And” between values parts separate entries of the source, which are not always exact repeats. Identical values can stand only once. Like-named read-outs stand apart in the source and are kept apart here.
Assay: Pharmacokinetics of rivaroxaban in rats after avitinib or gefitinib pretreatment
Format: in vivo, Sprague–Dawley (SD) rats
Conditions: for MRT last / AUC(0-inf) / Tmax / AUC(0-t) / CL/F / Cmax / half-life / MRT inf / Vd/F: male, Sprague-Dawley, rat, plasma, po, 10 mg/kg; for AUC(0-t): read-out: AUC(0–t); for CL/F: read-out: CLz/F (converted); for Cmax: read-out: Cmax; for half-life: read-out: t1/2 (converted); for MRT inf: read-out: MRT(0–∞); for Vd/F: read-out: Vz/F
Protocol: Eighteen male Sprague–Dawley (SD) rats weighing 300 ± 20 g were provided by the Experimental Animal Center of Wenzhou Medical University (Wenzhou, China) and kept under controlled conditions at a temperature of 23 ± 2 °C, relative humidity of 50 ± 10%, and 12 h light–dark cycle. Eighteen male SD rats were randomly assigned to three groups: avitinib, gefitinib, and control, with six rats per group. Prior to the experiment, the rats were not administered any other medications and fasted for 12 h. The experimental procedures and protocols adhered to Animal Ethics standards and were approved by the Animal Care and Use Committee of Wenzhou Medical University (approval no. wydw2019–650). All rats were anesthetized with sodium pentobarbital (40mg/kg, i.p) to relieve pain. The rats were killed through cervical dislocation.
Prior to the experiment in vivo, the six rats in the avitinib group were administered 30 mg/kg avitinib and 0.5% sodium carboxymethyl cellulose (CMC-Na) solution by gavage daily for 7 d. […] The supernatant was collected and stored at −80 °C. After thawing, 50 μL of plasma was extracted; 100 μL of acetonitrile solution containing midazolam (200 ng/mL) was then added to induce protein precipitation. After vortexing for 30 s and centrifuging at 13,000 rpm for 5 min, the […].
All assays were performed in triplicate, and the results are expressed as mean ± standard deviation. DAS software v. […] SPSS v. 25.0 (IBM, NY, USA) was used for data processing. Student’s t-tests were used to detect differences between groups. Differences with p < 0.05 were considered statistically significant.

[1] = rats, rivaroxaban 10 mg/kg oral, avitinib group (30 mg/kg pretreatment)
[2] = rats, rivaroxaban 10 mg/kg oral, control group (CMC-Na only)
[3] = rats, rivaroxaban 10 mg/kg oral, gefitinib group (25 mg/kg pretreatment)

- MRT last (gefitinib group, single rats No1-No6, read-out: MRT(0-t)): 5.59 h
- AUC(0-inf) [1]: 9.35 ± 3.84 µg·h/mL
- Tmax [1]: 1.33 ± 0.82 h
- AUC(0-t) [1]: 9 ± 3.74 µg·h/mL
- CL/F [1]: 1.18 L/h/kg
- Cmax [1]: 1.81 ± 0.619 µg/mL
- MRT last (rats, rivaroxaban 10 mg/kg oral, avitinib group (30 mg/kg pretreatment), read-out: MRT(0–t)): 3.79 ± 0.66 h
- half-life [1]: 2.2 ± 1.07 h
- AUC(0-inf) [2]: 2.28 ± 0.87 µg·h/mL
- Tmax [2]: 0.83 ± 0.26 h
- AUC(0-t) [2]: 2.25 ± 0.853 µg·h/mL
- CL/F [2]: 4.85 L/h/kg
- Cmax [2]: 0.441 ± 0.0818 µg/mL
- MRT last (rats, rivaroxaban 10 mg/kg oral, control group (CMC-Na only), read-out: MRT(0–t)): 3.79 ± 1.08 h
- MRT inf [2]: 3.95 ± 1.05 h
- Vd/F [2]: 11.5 ± 2.63 L/kg
- half-life [2]: 1.61 ± 0.61 h
- AUC(0-inf) [3]: 76 ± 20.8 µg·h/mL
- Tmax [3]: 3.17 ± 0.98 h
- AUC(0-t) [3]: 58 ± 5.89 µg·h/mL
- CL/F [3]: 0.14 L/h/kg
- Cmax [3]: 8.31 ± 2.1 µg/mL
- MRT last (rats, rivaroxaban 10 mg/kg oral, gefitinib group (25 mg/kg pretreatment), read-out: MRT(0–t)): 4.9 ± 0.47 h
- MRT inf [3]: 8.23 ± 3.61 h
- Vd/F [3]: 0.87 ± 0.28 L/kg
- half-life [3]: 4.81 ± 2.7 h
- MRT(0–∞) [1]: 4.26 ± 1.12 h
Structure (SMILES): O=C(NC[C@H]1CN(c2ccc(N3CCOCC3=O)cc2)C(=O)O1)c1ccc(Cl)s1 [rivaroxaban, Rivaroxaban]
- rivaroxaban (吉非替尼 (gefitinib) group, individual rats 7-12, time 0.0833): 778.8 ng/mL and 334.9 ng/mL and 724.5 ng/mL and 847.1 ng/mL and 256.3 ng/mL and 816.3 ng/mL
- rivaroxaban (吉非替尼 (gefitinib) group, individual rats 7-12, time 0.25): 1686.1 ng/mL and 1476.8 ng/mL and 2176.1 ng/mL and 1686 ng/mL and 1747.2 ng/mL
- rivaroxaban (吉非替尼 (gefitinib) group, individual rats 7-12, time 0.5): 3330.8 ng/mL and 4408.9 ng/mL and 4082.8 ng/mL and 3161.2 ng/mL and 3240.3 ng/mL
- rivaroxaban (吉非替尼 (gefitinib) group, individual rats 7-12, time 1): 5012 ng/mL and 6707.2 ng/mL and 5280.7 ng/mL and 6110.2 ng/mL and 4481.1 ng/mL
- rivaroxaban (吉非替尼 (gefitinib) group, individual rats 7-12, time 2): 8309.8 ng/mL and 7015.4 ng/mL and 10641.7 ng/mL and 6946 ng/mL
- rivaroxaban (吉非替尼 (gefitinib) group, individual rats 7-12, time 3): 6431.9 ng/mL and 10386.8 ng/mL and 7734.1 ng/mL
- rivaroxaban (吉非替尼 (gefitinib) group, individual rats 7-12, time 4): 6136.6 ng/mL and 9214.1 ng/mL and 6949.9 ng/mL
- rivaroxaban (吉非替尼 (gefitinib) group, individual rats 7-12, time 6): 6115 ng/mL and 5681 ng/mL and 5825.4 ng/mL
- rivaroxaban (吉非替尼 (gefitinib) group, individual rats 7-12, time 8): 3374.5 ng/mL and 2542.2 ng/mL and 4779.1 ng/mL
- rivaroxaban (吉非替尼 (gefitinib) group, individual rats 7-12, time 12): 732.7 ng/mL and 1716.7 ng/mL and 1654.8 ng/mL and 917.3 ng/mL
- rivaroxaban (对照 (control, rivaroxaban alone) group, individual rats 13-18, time 0.0833): 278.3 ng/mL and 142.7 ng/mL and 136.5 ng/mL and 68.9 ng/mL and 158.6 ng/mL and 163.2 ng/mL
- rivaroxaban (对照 (control, rivaroxaban alone) group, individual rats 13-18, time 0.25): 264.9 ng/mL and 294.2 ng/mL and 171.8 ng/mL and 256.9 ng/mL and 261.1 ng/mL
- rivaroxaban (对照 (control, rivaroxaban alone) group, individual rats 13-18, time 0.5): 465.3 ng/mL and 337.5 ng/mL and 461.6 ng/mL and 378.7 ng/mL and 305.8 ng/mL
- rivaroxaban (对照 (control, rivaroxaban alone) group, individual rats 13-18, time 2): 261.4 ng/ml (2×) and 475.9 ng/ml and 181.6 ng/ml and 351.5 ng/ml and 418.6 ng/ml and 334.6 ng/ml
- rivaroxaban (对照 (control, rivaroxaban alone) group, individual rats 13-18, time 3): 240.8 ng/mL and 431.8 ng/mL and 207.2 ng/mL and 349.6 ng/mL
- rivaroxaban (艾维替尼 (avitinib) group, individual rats 1-6, time 0.0833): 380.2 ng/mL and 320.6 ng/mL and 287.7 ng/mL and 191 ng/mL and 288.9 ng/mL and 237.4 ng/mL
- rivaroxaban (艾维替尼 (avitinib) group, individual rats 1-6, time 0.25): 386.7 ng/ml (2×) and 727.9 ng/ml and 581.8 ng/ml and 614.9 ng/ml and 286.3 ng/ml and 927.5 ng/ml
- rivaroxaban (艾维替尼 (avitinib) group, individual rats 1-6, time 0.5): 990.9 ng/ml (2×) and 1066.3 ng/ml and 1018.5 ng/ml and 978.4 ng/ml and 583.2 ng/ml and 1904.4 ng/ml
- rivaroxaban (艾维替尼 (avitinib) group, individual rats 1-6, time 1): 1423.2 ng/ml (2×) and 1593.7 ng/ml and 2386.3 ng/ml and 1162.7 ng/ml and 1561.2 ng/ml and 2231.2 ng/ml

From paper PMC12133000 (PLOS One, 2025)
